Data on 19 molecules can be found in patent US4243668A, “Octahydro-1H-benzo[4,5]furo[3,2-e]-isoquinoline analgesic and narcotic antagonistic compounds” (priority 1979, dated 1981).

The subject of assay [1] is Straub tail. The assay is described as follows: Straub tail reaction (oral), narcotic agonist effect. Format: in vivo, CF1 S female mice. The following applies: Mus musculus, mice. On the procedure:
Narcotic analgesics produce in mice an erection and arching of the tail (90° or more) which is referable to spinal cord stimulation. This Straub tail reaction is not produced by other analgesics, including the narcotic antagonists.
The method used was modified from Shemano, I., and Wendel, H., Tox. Appl. Pharm., 6, 334-9 (1964). CF1 S female mice (18-21 g), 10-20 mice per dose, were intubated with log scaled doses of analgesic in 1% aqueous methylcellulose. A positive Straub tail response was recorded if a tail was erected 90° or more for 5 seconds at any time within 24 minutes after dosing. A quantal Straub tail ED50 was calculated by the moving average method [Thompson, W. R., Bact. Rev., 11, 115-145 (1947)].

Assay [2] relates to induction of Straub tail in mice by a highly addicting agonist such as morphine. In words: anti-Straub tail test, antagonism of morphine-induced Straub tail (narcotic antagonism). Format: in vivo, Female CF1 S mice. The following applies: Mus musculus, sc, mice, s.c.; vs morphine sulfate 30 mg/kg i.p.; read-out: EFFECT ED50 subcutaneous(s.c.) Anti-Straub Tail.
The test system of assay [3] is pain induced by phenylquinone. The assay is described as follows: phenylquinone writhing test (oral anti-PQW), analgesic activity. Format: in vivo, female white mice. Particulars: Mus musculus, po, mice, oral, phenylquinone writhing, ED50; read-out: EFFECT ED50 Oral Anti-PQW. On the procedure: A standard procedure for detecting and comparing the analgesic activity of compounds in this series for which there is good correlation with human efficacy is the standard phenylquinone writhing test modified from Siegmund, et al., Proc. Soc. Exp. Biol. Med., 95, 729 (1957). A test compound suspended in 1% methocel® was given orally to fasted (17-21 hours) female white mice, 5-20 animals per double blind test. Aqueous (0.01% phenyl-p-benzoquinone) phenylquinone was injected intraperitoneally at 24 minutes later using 0.20 ml per mouse. […] The effective analgesic dose for 50% of the mice (ED50) was calculated by the moving average method of Thompson, W. R., Bact. Rev., 11, 115-145 (1947).

The conditions of assay [4]: cited from earlier work; for intrinsic analgesic activity, in words: background statement.
Assay [5] has as its system induction of Straub tail in mice by a highly addicting agonist such as morphine. Particulars: Blumberg et al. 1968; cited from earlier work.

One may read the ED50 as the midpoint of the dose-response relation. As for `CCCN1CC[C@]23c4cccc(OC)c4O[C@H]2CCC[C@H]3C1` (relative stereo) [Example 21], the figures for the ED50 in assay [1], in assay [2] and in assay [3] were more than 135 mg/kg, 0.08 mg/kg and 78 mg/kg, respectively.

With `CCCN1CC[C@]23c4cccc(O)c4O[C@H]2CCC[C@H]3C1` (relative stereo) [Example 22], the results for the ED50 in assay [1], in assay [2] and in assay [3] were more than 135 mg/kg, 0.008 mg/kg and 112 mg/kg, respectively.

On to `CCCCN1CC[C@]23c4cccc(OC)c4O[C@H]2CCC[C@H]3C1` (relative stereo) [Example 23], for which the ED50 is more than 135 mg/kg in assay [1], 0.82 mg/kg in assay [2] and 33 mg/kg in assay [3].

With `CCCCN1CCC23c4cccc(O)c4OC2CCCC3C1` (centres unmarked) [Example 24], the ED50 in assay [1] was more than 135 mg/kg; in assay [2] it was 0.032 mg/kg; in assay [3] it was 23 mg/kg.

For `CCCCCN1CCC23c4cccc(OC)c4OC2CCCC3C1` (centres unmarked) [Example 25], the ED50 is 57 mg/kg in assay [1], more than 27 mg/kg in assay [2] and 6.2 mg/kg in assay [3].

As to `CCCCCN1CCC23c4cccc(O)c4OC2CCCC3C1` (centres unmarked) [Example 26], the ED50 was 37 mg/kg in assay [1], more than 27 mg/kg in assay [2] and 5.3 mg/kg in assay [3].

For `CCCCCCN1CCC23c4cccc(OC)c4OC2CCCC3C1` (centres unmarked) [Example 27], the results for the ED50 in assay [1], in assay [2] and in assay [3] were 25 mg/kg, more than 27 mg/kg and 7 mg/kg, respectively.

As for `COc1cccc2c1OC1CCCC3CN(CC(C)C)CCC231` (centres unmarked) [Example 31], the ED50 was more than 135 mg/kg in assay [1], 0.24 mg/kg in assay [2] and 94 mg/kg in assay [3].

As to `CC(C)CN1CCC23c4cccc(O)c4OC2CCCC3C1` (centres unmarked) [Example 32], the ED50 in assay [1] was more than 135 mg/kg; in assay [2], 0.03 mg/kg; in assay [3] it was 63 mg/kg.

On to `Oc1cccc2c1OC1CCCC3CN(CC4CCCCC4)CCC231` (centres unmarked) [Example 34], for which the ED50 is more than 135 mg/kg in assay [1], more than 27 mg/kg in assay [2] and 23 mg/kg in assay [3].

Consider `COc1cccc2c1OC1CCCC3CN(CCc4ccc(C)cc4)CCC231` (centres unmarked) [Example 35], for which the ED50 came to 52 mg/kg in assay [1], 56 mg/kg in assay [2] and 1.7 mg/kg in assay [3].

For the molecule `Cc1ccc(CCN2CCC34c5cccc(O)c5OC3CCCC4C2)cc1` (centres unmarked) [Example 36], the ED50 is 39 mg/kg in assay [1], more than 81 mg/kg in assay [2] and 0.67 mg/kg in assay [3].

For the molecule `COc1cccc2c1OC1CCCC3CN(Cc4ccco4)CCC231` (centres unmarked) [Example 37], the ED50 was more than 135 mg/kg in assay [1], 12 mg/kg in assay [2] and 84 mg/kg in assay [3].

With `Oc1cccc2c1OC1CCCC3CN(Cc4ccco4)CCC231` (centres unmarked) [Example 38], the ED50 was more than 135 mg/kg in assay [1], 7.2 mg/kg in assay [2] and 108 mg/kg in assay [3].

Take `COc1cccc2c1OC1CCCC3CN(Cc4cccs4)CCC231` (centres unmarked) [Example 41]: the ED50 is more than 135 mg/kg in assay [1], more than 27 mg/kg in assay [2] and 48 mg/kg in assay [3].

On to `CC(C)=CCN1CCC2(C)c3cc(O)ccc3CC1C2C` (centres unmarked) [Pentazocine, reference compound], for which the ED50 in assay [1] is more than 135 mg/kg; in assay [2], 4 mg/kg; in assay [3] it was 56 mg/kg.

For `C=CCN1CC[C@]23CCCC[C@H]2[C@H]1Cc1ccc(O)cc13` [levallorphan], the “intrinsic analgesic activity, in words” value in assay [4] was “some analgesic effects”.

With `C=CCN1CC[C@]23c4c5ccc(O)c4O[C@H]2[C@@H](O)C=C[C@H]3[C@H]1C5` [nalorphine], the “prevention of morphine-induced Straub tail, in words” value in assay [5] is “prevent the induction of Straub tail in mice”. In assay [4], the “intrinsic analgesic activity, in words” value is recorded as “some analgesic effects”. Moreover, in assay [4] (in man, Lasagna and Beecher 1954), the “analgetic properties in man, in words” value is “analgetic properties in man”.

Turning to `C=CCN1CC[C@]23c4c5ccc(O)c4O[C@H]2C(=O)CC[C@@]3(O)[C@H]1C5` [naloxone], the “prevention of morphine-induced Straub tail, in words” value in assay [5] is on record as “prevent the induction of Straub tail in mice”.
